According to patent US11795195B2, “Antibody-drug conjugates including hemiasterlin derivative” (Sumitomo Pharma Co., Ltd., priority 2017, dated 2023):

Experiments:
[1] = Membrane Permeability Test, parallel artificial membrane permeability assay (PAMPA); format: in vitro ADME; conditions: pH 7.4, pH7.4, 37° C., read-out: Pe (pH7.4)
Method: By the parallel artificial membrane permeability assay (PAMPA), the membrane permeability of compounds of Examples was examined as follows: To the donor plate, System solution (pION inc.) and GIT Lipid-0 (pION inc.) were added in an amount of 200 μL and 4 μL for each well, respectively. To the acceptor plate, Acceptor Sink Buffer (pION inc.) was added in an amount of 200 μL. Both plates were superposed and incubated at 37° C. for 4 hours, and then, UVs in the solutions on the side of acceptor and on the side of donor were measured with an UV plate reader (190 to 500 nm). Compounds with poor UV absorption were measured by LC-MS. The permeability coefficient Pe (10^−6 cm/sec) of the drug was calculated by the following formula.
[formula] • ra=(VD/VA)Pa^(A-D)/Pa^(D-A)=rVPe^(A-D)/Pa^(D-A) • rV=(VD/VA) • VD=volume of doner well • VA=volume of acceptor well • t=permeation time • τ^SS=steady state time • R=retention • CD=CA=concentration in donor and acceptor well

[2] = system: SK-BR-3 cells; experiment: Cellular Toxicity Test (2), CellTiter-Glo cell viability; format: cell-based, human; conditions: for IC50: Homo sapiens, 72 h, cultured 3 days, cell viability
Method: SK-BR-3 cells (ATCC), which are human breast cancer cell line, were cultured in McCoy's 5A (GIBCO) containing 10% fetal bovine serum (MP Biomedicals) (hereinafter, referred to as the “culture medium” in this test). SK-BR-3 cells were prepared to be 2×10^6 cells/mL in the culture medium, added to a 96 well microplate for cell culturing in an amount of 50 μL for each well, and cultured at 37 degree under 5% CO2 overnight, and then, compounds of Examples or Comparative Example compound 4 times diluted with the culture medium in 8 stages were added to the microplate in an amount of 50 μL for each well. These were cultured at 37 degree under 5% CO2 for 3 days. After culturing, the microplate was taken out from the incubator, and was left at rest at room temperature for 10 minutes. 50 μL of CellTiter-Glo Luminescent Cell Viability Assay (Promega) was added to each well, and the resultant mixture was stirred. This mixture was incubated at a dark place for 20 minutes. Using a microplate luminometer, luminescence at each well was measured, thereby calculating the cell viability. The IC50 value was calculated in accordance with the method described in Test Example 1.

[3] = system: Karpas-299 cells; experiment: Cellular Toxicity Test (1), CellTiter-Glo cell viability; format: cell-based, human; conditions: for IC50: Homo sapiens, 96 h, cultured 4 days, cell viability
Method: Karpas-299 cells (European Collection of Authenticated Cell Cultures, hereinafter, ECACC), which are human lymphoma cell lines, were cultured in RPMI 1640 (GIBCO) containing 10% fetal bovine serum (MP Biomedicals) (hereinafter, referred to as the “culture medium”). Cells were prepared to be 2×10^6 cells/mL in the culture medium, and were added to a 96 well microplate for cell culturing in an amount of 50 μL for each well. Compounds of Examples or Comparative Example compound 4 times diluted with the culture medium in 8 stages were added to the microplate in an amount of 50 μL for each well. These were cultured at 37 degree under 5% CO2 for 4 days. After culturing, the microplate was taken out from the incubator, and was left at rest at room temperature for 10 minutes. To each well, 50 μL of CellTiter-Glo Luminescent Cell Viability Assay (Promega) was added, and the resultant mixture was stirred. This mixture was incubated at a dark place for 20 minutes. Using a microplate luminometer, luminescence at each well was measured, thereby calculating the cell viability. In addition, from the value of cell viability, the IC50 value was calculated.
The IC50 value was calculated by the following formula: IC50 (nM)=antilog(LOG10(a/b)×(e−d)/(c−d)+LOG10b) a: concentration a of test substance b: concentration b of test substance c: cell viability upon adding test substance with concentration a d: cell viability upon adding test substance with concentration b e: intermediate value between maximum and minimum among cell viabilities upon adding test substances with different concentrations (a and b are concentrations crossing the cell viability e, and a>b is indicated).
The cell viability at each concentration was calculated by the following formula: Cell Viability (%)=a′/b′×100 a′: mean value of luminescence amount of wells to which test substance was added (n=6) b′: mean value of luminescence amount of wells to which test substance was not added (n=6) (n represents the number of evaluations performed per test substance concentration).

[4] = system: Karpas-299 cells; experiment: Cellular Toxicity Test (1) for ADCs; format: cell-based, human; conditions: Karpas-299 (CD30 antigen-positive, HER2 antigen-negative cell line), 4 days
Method: Karpas-299 cells (ECACC), which are CD30 antigen-positive and HER2 antigen-negative, were cultured in RPMI 1640 (GIBCO) containing 10% fetal bovine serum (MP Biomedicals) (hereinafter, referred to as “culture medium A” in this test). In addition, SK-BR-3 cells (ATCC), which are CD30 antigen-negative and HER2 antigen-positive, were cultured in McCoy's 5A (GIBCO) containing 10% fetal bovine serum (MP Biomedicals) (hereinafter, referred to as “culture medium B” in this test). Karpas-299 cells and SK-BR-3 cells were prepared to be 2×10^6 cells/mL in culture medium A or culture medium B, and were added to a 96 well microplate for cell culturing in an amount of 50 μL for each well. After the addition, SK-BR-3 cells were cultured at 37 degree under 5% CO2 overnight. ADCs 4 times diluted with culture medium A or culture medium B in 8 stages were added to the microplate in an amount of 50 μL for each well, and Karpas-299 cells and SK-BR-3 cells were cultured at 37 degree under 5% CO2 for 4 days or 3 days, respectively. After culturing, the microplate was taken out from the incubator, and was left at rest at room temperature for 10 minutes. […] Using a microplate luminometer, luminescence was measured, thereby calculating the cell viability for each concentration of the ADC. The IC50 value was calculated in accordance with the method described in Test Example 1.

[5] = system: Karpas-299 cells; experiment: Cellular Toxicity Test (2) for ADCs, cell survival relative to brentuximab; format: cell-based, human; conditions: Karpas-299, 2000 ng/mL solution added, 4 days, relative to cells surviving brentuximab treatment
Method: Karpas-299 cells were prepared to be 2×10^6 cells/mL in culture medium A, and were added to a 96 well microplate for cell culturing in an amount of 50 μL for each well. Brentuximab or Example ADCs, the concentration of which was prepared to be 2000 ng/mL with culture medium A, was added to the microplate in an amount of 50 μL for each well, and cultured at 37 degree under 5% CO2 for 4 days. After culturing, the microplate was taken out from the incubator, and was left at rest at room temperature for 10 minutes. To each well, 50 μL of CellTiter-Glo Luminescent Cell Viability Assay (Promega) was added, and the resultant mixture was stirred. This mixture was incubated at a dark place for 20 minutes, and luminescence was measured using a microplate luminometer, thereby determining the percentage of the number of cells that survived upon the treatment with Example ADCs relative to the number of cells that survived upon the treatment with brentuximab.

[6] = system: HL-60; experiment: Cellular Toxicity Test (3) for ADCs; format: cell-based; conditions: HL-60, treatment with 333 nM of ADC
Method: In accordance with the method described in Test Example 3 or Test Example 7, cellular toxicities of Example ADCs were measured using the cell types shown in the following table. As an indicator for the cellular toxicity, IC50 or the cell survival rate upon the treatment with 333 nM of ADC was measured. However, for ADC 51, the cell survival rate upon the treatment with 26.6 nM of ADC51 was measured.

Molecule | Papp at 4 h [1] [×10⁻⁶ cm/s] | IC50 [3] [nM] | other results
CN[C@H](C(=O)N[C@H](C(=O)N(C)[C@H](/C=C(\C)C(=O)N[C@H](CCC(=O)NCCN1C(=O)C=CC1=O)C(=O)O)C(C)C)C(C)(C)C)C(C)(C)c1cn(C)c2ccccc12 [Example M1, (3S,6S,9S,10E,14R)-6-tert-Butyl-14-(3-{[2-(2,5-dioxo-2,5-dihydro-1H-pyrrol-1-yl)ethyl]amino}-3-oxopropyl)-8,11-dimethyl-3-[2-(1-methyl-1H-indol-3-yl)propan-2-yl]-4,7,12-trioxo-9-(propan-2-yl)-2,5,8,13-tetraazapentadec-10-en-15-oic Acid] | < 0.1 | 726 | IC50 [2]: > 1000 nM
CN[C@H](C(=O)N[C@H](C(=O)N(C)[C@H](/C=C(\C)C(=O)NCCCCNC(=O)CCCCCN1C(=O)C=CC1=O)C(C)C)C(C)(C)C)C(C)(C)c1cn(C)c2ccccc12 [Comparative Example compound, reference compound] | 16.9 | 19.1 | cellular toxicity to SK-BR-3 cells (in words) [2]: strong cellular toxicity; IC50 [2]: 162 nM; cellular toxicity to Karpas-299 cells (in words) [3]: strong cellular toxicity
CN[C@H](C(=O)N[C@H](C(=O)N(C)[C@H](/C=C(\C)C(=O)N[C@H](CCC(=O)NCCN1C(=O)C=CC1=O)C(=O)O)C(C)C)C(C)(C)C)C(C)(C)c1cccc(F)c1 [Example M32] | 0.6 | 616 | 
CN[C@H](C(=O)N[C@H](C(=O)N(C)[C@H](/C=C(\C)C(=O)N[C@H](CC(=O)NCCN1C(=O)C=CC1=O)C(=O)O)C(C)C)C(C)(C)C)C(C)(C)c1ccccc1 [Example M9] | < 0.1 | 576 | 
C/C(=C\[C@H](C(C)C)N(C)C(=O)[C@@H](NC(=O)[C@H]1CCCCN1C(=O)CCN1C(=O)C=CC1=O)C(C)(C)C)C(=O)N[C@H](CCC(=O)O)C(=O)O [Example M29] | < 0.1 | > 1000 | 
CN[C@H](C(=O)N[C@H](C(=O)N(C)[C@H](/C=C(\C)C(=O)N[C@H](CCC(=O)NCCN1C(=O)C=CC1=O)C(=O)O)C(C)C)C(C)(C)C)C(C)(C)c1cccc(-c2ccccc2)c1 [Example M41] | 0.8 | 26.3 | 
CN[C@H](C(=O)N[C@H](C(=O)N(C)[C@H](/C=C(\C)C(=O)N[C@@H](CCCCNC(=O)CCCN1C(=O)C=CC1=O)C(=O)O)C(C)C)C(C)(C)C)C(C)(C)c1cn(C)c2ccccc12 [Example M27] | < 0.1 | 192 | 
CN[C@H](C(=O)N[C@H](C(=O)N(C)[C@H](/C=C(\C)C(=O)N[C@H](CCC(=O)O)C(=O)NCCN1C(=O)C=CC1=O)C(C)C)C(C)(C)C)C(C)(C)c1cn(C)c2ccccc12 [Example M25] | < 0.1 | 140 | 
CN[C@H](C(=O)N[C@H](C(=O)N(C)[C@H](/C=C(\C)C(=O)N[C@@H](CC(=O)NCCN1C(=O)C=CC1=O)C(=O)O)C(C)C)C(C)(C)C)C(C)(C)c1cn(C)c2ccccc12 [Example M19] | < 0.1 | 169 | 
CN[C@H](C(=O)N[C@H](C(=O)N(C)[C@H](/C=C(\C)C(=O)N[C@@H](CCC(=O)NCCN1C(=O)C=CC1=O)C(=O)O)C(C)C)C(C)(C)C)C(C)(C)c1ccccc1 [Example M11] | < 0.1 | > 1000 | 
C/C(=C\[C@H](C(C)C)N(C)C(=O)[C@@H](NC(=O)[C@@H](NC(=O)CCCCCN1C(=O)C=CC1=O)C(C)(C)c1cn(C)c2ccccc12)C(C)(C)C)C(=O)N[C@H](CCC(=O)O)C(=O)O [Example M48] | 0.3 | > 1000 | 
Comparative Example 1: Brentuximab, a CD30 antigen-specific antibody, no modifying agent, average DAR 0 |  |  | IC50 [4]: > 6.6 nM; Cell survival rate (%) [5]: 100%
CN[C@H](C(=O)N[C@H](C(=O)N(C)[C@H](/C=C(\C)C(=O)N[C@H](CCC(=O)NCCN1C(=O)C=CC1=O)C(=O)O)C(C)C)C(C)(C)C)C(C)(C)c1ccc(C(=O)O)cc1 [Example M36] | 0.6 | > 1000 | 
CN[C@H](C(=O)N[C@H](C(=O)N(C)[C@H](/C=C(\C)C(=O)N[C@H](CCC(=O)NCCCCN1C(=O)C=CC1=O)C(=O)O)C(C)C)C(C)(C)C)C(C)(C)c1ccccc1 [Example M17] | < 0.1 | 35 | 
ADC54: ADC of Vadastuximab and M4, average DAR 5.3 (conjugate, chains of the INN, looked up, drug-linker M4, DAR 5.3) VH: QVQLVQSGAEVKKPGASVKVSCKASGYTFTNYDINWVRQAPGQGLEWIGWIYPGDGSTKYNEKFKAKATLTADTSTSTAYMELRSLRSDDTAVYYCASGYEDAMDYWGQGTTVTVSS VL: DIQMTQSPSSLSASVGDRVTINCKASQDINSYLSWFQQKPGKAPKTLIYRANRLVDGVPSRFSGSGSGQDYTLTISSLQPEDFATYYCLQYDEFPLTFGGGTKVEIK |  |  | Cell survival rate (%) [6]: 68%
